Laboratory results as given in patent US9091692B2, “Fluorescent dye” (SHINICHIRO ISOBE, priority 2011, dated 2015).

Assay: Measurement of a fluorescence spectrum (absorption and fluorescent wavelength, fluorescence intensity)
Format: physicochemical
Conditions: dissolved in DMSO, concentration 10^-4 M
Method: Measurement of a Fluorescence Spectrum
Each of the synthesized fluorescent dyes was dissolved in a solvent by using DMSO to prepare a solution having a concentration of 10^−4 M, so that the measurements of fluorescent wavelength and absorption wavelength were performed.

Compound | Absorption wavelength [nm] | Fluorescence wavelength [nm] | Stokes shift [nm]
O=C(CCCCC[n+]1cccc(/C=C/c2nc(-c3ccccc3)c3nsnc3c2-c2ccccc2)c1)ON1C(=O)CCC1=O [Synthetic Example 1] | 411 | 531 | 120
COc1ccc(-c2nc(/C=C/c3ccc[n+](CCCCCC(=O)ON4C(=O)CCC4=O)c3)c(-c3ccc(OC)cc3)c3nonc23)cc1 [Synthetic Example 2] | 437 | 608 | 171
Cc1csc(-c2c(-c3ccc[n+](CCC(=O)ON4C(=O)CCC4=O)c3)nc(-c3ccc(C)s3)c3nonc23)c1 [Synthetic Example 10] | 531 | 650 | 119
Cc1csc(-c2c(-c3cc[n+](CCCCCC(=O)ON4C(=O)CCC4=O)cc3)nc(-c3ccc(C)s3)c3nonc23)c1 [Synthetic Example 11, active ester of 4,7-di(methylthienyl)-1,2,5-oxadiazolopyridine-6-(4-pyridinium)] | 528 | 648 | 120
O=C(CCCCC[n+]1cccc(-c2nc(-c3ccccc3)c3nonc3c2-c2ccccc2)c1)ON1C(=O)CCC1=O [Synthetic Example 12] | 382 | 513 | 131
O=C(CCCCC[n+]1ccc(-c2nc(-c3ccc(-c4ccc5ccccc5c4)s3)c3nonc3c2-c2cc(-c3ccc4ccccc4c3)cs2)cc1)ON1C(=O)CCC1=O [Synthetic Example 16, active ester of 4,7-di[(2-naphthyl)thienyl]-1,2,5-oxadiazolopyridine-6-(4-pyridinium)] | 516 | 682 | 166
O=C(CCCCC[n+]1ccc(/C=C/c2nc(-c3ccc(-c4cccc5ccccc45)s3)c3nonc3c2-c2ccc(-c3cccc4ccccc34)s2)cc1)ON1C(=O)CCC1=O [Synthetic Example 18, active ester of 4,7-di[(1-naphthyl)thienyl]-1,2,5-oxadiazolopyridine-6-(4-vinylpyridinium)] | 535 | 700 | 165
O=C(CCCCC[n+]1ccc(-c2nc(-c3ccc(-c4ccc(-c5ccccc5)cc4)s3)c3nonc3c2-c2cc(-c3ccc(-c4ccccc4)cc3)cs2)cc1)ON1C(=O)CCC1=O.[Br-] [Synthetic Example 20, active ester of 4,7-di[(2-biphenyl)thienyl]-1,2,5-oxadiazolopyridine-6-(4-pyridinium)] | 529 | 715 | 186
active ester of 4,7-di(bromothienyl)-1,2,5-oxadiazolopyridine-6-(4-pyridine) [Synthetic Example 13] | 516 | 698 | 182
active ester of 4,7-di(methylthienyl)-1,2,5-oxadiazolopyridine-6-(3-pyridinium) [Synthetic Example 9] | 539 | 660 | 121
active ester of 4,7-di[(1-naphthyl)thienyl]-1,2,5-oxadiazolopyridine-6-(4-pyridinium) [Synthetic Example 15] | 532 | 722 | 190
active ester of 4,7-di[(2-biphenyl)thienyl]-1,2,5-oxadiazolopyridine-6-(4-vinylpyridinium) [Synthetic Example 21] | 404 | 527 | 123
active ester of 4,7-di[(2-bromo)thienyl]-1,2,5-oxadiazolopyridine-6-(4-vinylpyridinium) [Synthetic Example 17] | 509 | 688 | 179
active ester of 4,7-di[(2-naphthyl)thienyl]-1,2,5-oxadiazolopyridine-6-(4-vinylpyridinium) [Synthetic Example 19] | 533 | 730 | 197
active ester of 4,7-di[(2-phenyl)thienyl]-1,2,5-oxadiazolopyridine-6-(4-pyridinium) [Synthetic Example 14] | 500 | 710 | 210

Same assay, conditions: fluorescence intensity of Synthetic Example 22 was 1.0

Compound | Fluorescence intensity relative to Synthetic Example 22
O=C(CCCCC[n+]1cccc(/C=C/c2nc(-c3ccccc3)c3nsnc3c2-c2ccccc2)c1)ON1C(=O)CCC1=O [Synthetic Example 1] | 11.2
O=C(CCCCC[n+]1cccc(-c2nc(-c3ccccc3)c3nonc3c2-c2ccccc2)c1)ON1C(=O)CCC1=O [Synthetic Example 12] | 6.0
active ester of 4,7-diphenyl-1,2,5-oxadiazolopyridine ethyl ester [Synthetic Example 22, reference compound] | 1.0

Assay: Direct solubility of the fluorescent dye in water
Format: physicochemical
Conditions: not given
Source text: The fluorescent dyes obtained in Synthetic Examples 1 to 21 were each directly soluble in water. […] A stokes shift of 100 nm or more was obtained in all the synthesized fluorescent dyes. An absorption wavelength of 400 to 450 nm was obtained in the 4,7-diphenyl whereas an absorption wavelength of 500 nm or more and a fluorescence wavelength of 600 nm or more were obtained in the 4,7-thienyl. When the fluorescence intensity of Synthetic Example 22 was 1.0, a very high fluorescence intensity as much as 11.2 was obtained in Synthetic Example 1 and a very high fluorescence intensity as much as 6.0 was obtained in Synthetic Example 12.

Compound | Direct solubility in water
active ester of 4,7-diphenyl-1,2,5-oxadiazolopyridine ethyl ester [Synthetic Example 22, reference compound] | could not be directly dissolved in water
